In patent US10570168B2, “2′ and/or 5′ amino-acid ester phosphoramidate 3′-deoxy adenosine derivatives as anti- cancer compounds” (NuCana plc, priority 2014, dated 2020):
Like-named read-outs stand apart in the source and are kept apart here.

Key:
Format in all cases: cell-based
[1] = system: RL (CRL-2261); assay: ATP (ViaLight plus) cytotoxicity assay
Protocol: Certain compounds of the invention were subjected to further studies to test the cytotoxic activity of certain compounds of the invention and also to measure their activity against 4 haematological cancer cell lines • TdT positive CEM (Human ALL) • TdT negative K562 (Human CML) • TdT negative H1-60 (Human ANLL) • RL (CRL-2261) non-HD lymphoma • The concentrations of the active metabolite dATP (Cordycepin triphosphate) in these cell lines was also measured. • The cytotoxic activity and the intracellular 3′-dATP concentrations were also studied in the presence of hENT1, Adenosine Kinase (AK) and Adenosine Deaminase pharmacological inhibitors in CEM and RL cancer cell lines. Said inhibitors that mimic known cancer resistance mechanisms. Methods Cell Culture
HL-60 (ATCC® CCL-240™), K562 (ATCC® CCL-243™), CCRF-CEM (ATCC® CRM-CCL-119™) and RL (ATCC® CRL-2261™) leukaemia cell lines, obtained from the American Type Culture Collection (ATCC), Middlesex. HL-60 and K562 cell lines are deoxynucleotidyl transferase-negative (TdT-ve), whereas CCRF-CEM cell line is TdT+ve.
HL-60, K562, CCRF-CEM and RL cell lines were cultured in RPMI-1640 medium (Sigma Aldrich, UK), which were supplemented with 10% Fetal Bovine Serum (FBS) (PAA Laboratories), 1% amphotericin B (5.5 ml) and 1% penicillin/streptomycin (5.5 ml) (PAA Laboratories) and grown in flasks at 37° C. incubator with 5% CO2.
The amount of ATP was used as a measurement of cell number and cell viability. ATP ViaLight™ plus assay kit (Lonza, USA: Product No. LT07-121) to detect ATP in cells treated in luminescence compatible 96 well plates (initial concentration of cells was 1×10^4 cells/well) with cordycepin and ProTides at concentrations of: 0, 0.1, 0.5, 1, 5 and 10 μM, followed by incubation for 72 hours at 37° C. incubator with 5% CO2. For inhibitor studies, 10 μM of NBTI or 1 μM EHNA or A-134974 was added and left for 5 minutes before adding the drugs (see section 5 for inhibitor details).
After incubation, 50 μl of cell lysis reagent was added to the 96 well plates to release the intracellular ATP, followed by 100 μl of ATP monitoring reagent (AMR). The luminescent values of each well were determined using FLUOstar OPTIMA microplate reader (BMG Labtech) which convert ATP into light by using luciferase enzyme. Therefore, the amount of luminescence produced was directly proportional to the amount of ATP.
Cell lines were treated in the same way as described above but before treatment with drugs, a number of inhibitors were added: • 1) Nitrobenzylthioinosine (NBTI) (Sigma-Aldrich, St. Louis, Mo., product # N2255) blocks nucleoside transporters • 2) EHNA hydrochloride (Sigma-Aldrich, St. Louis, Mo., product # E114) blocks adenosine deaminase • 3) Adenosine kinase inhibitor A-134974 dihydrochloride hydrate (Sigma-Aldrich, St. Louis, Mo., product # A2846): blocks adenosine kinase
The dose-response curves of cytotoxicity of the drugs was determined using non-linear regression analysis of percentage cell viability versus concentration and EC50 values were obtained. The intracellular assay was conducted in five replicates for each condition. Intracellular assay was determined using paired t test (two-tailed) analysis of 3′ATP/ATP concentration and p-values were obtained. For all the analysis, Prism Software program (GraphPad Software) was used and Microsoft Powerpoint® 2013 was used to plot the results.

[2] = system: CCRF-CEM; assay: CellTiterGlo viability assay, initial screening; conditions: Homo sapiens, read-out: IC50 (relative IC50)
In short: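 Under standard growth conditions with 0.5% final DMSO, cells received pre-warmed compound-containing media over nine 3.16-fold dilutions reaching 19.9 nM. After roughly 72 hr, CellTiter-Glo was used to quantify viability; all treatments were done in duplicate.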

[3] = system: KG1a cells; assay: Annexin V/propidium iodide in vitro apoptosis assay (LD50); conditions: 72 h
Protocol: The KG1a cell line was maintained in RPMI medium (Invitrogen, Paisley, UK) supplemented with 100 units/ml penicillin, 100 μg/ml streptomycin and 20% foetal calf serum. Cells were subsequently aliquoted (10^5 cells/100 μl) into 96-well plates and were incubated at 37° C. in a humidified 5% carbon dioxide atmosphere for 72 h in the presence of nucleoside analogues and their respective proTides at concentrations that were experimentally determined for each series of compounds. In addition, control cultures were carried out to which no drug was added. Cells were subsequently harvested by centrifugation and were analyzed by flow cytometry using the Annexin V assay.
Cultured cells were harvested by centrifugation and then resuspended in 195 μl of calcium-rich buffer. Subsequently, 5 μl of Annexin V (Caltag Medsystems, Botolph Claydon, UK) was added to the cell suspension and cells were incubated in the dark for 10 mins prior to washing. Cells were finally resuspended in 190 μl of calcium-rich buffer together with 10 μl of propidium iodide. Apoptosis was assessed by dual-colour immunofluorescent flow cytometry as described previously.
The data obtained in these experiments were evaluated using one way ANOVA. […] LD50 values were calculated from the non-linear regression and line of best-fit analysis of the sigmoidal dose-response curves. […]

[4] = system: leukaemic stem cell (LSC) compartment within the KG1a cell line; assay: Immunophenotypic identification of the leukaemic stem cell compartment; conditions: 72 h
Protocol: KG1a cells were cultured for 72 h in the presence of a wide range of concentrations of each compound assayed. Cells were then harvested and labelled with a cocktail of anti-lineage antibodies (PE-cy7), anti-CD34 (FITC), anti-CD38 (PE) and anti-CD123 (PERCP cy5). The sub-population expressing a LSC phenotype were subsequently identified and were expressed as a percentage of all viable cells left in the culture. The percentages of stem cells remaining were then plotted on a dose-response graph and the effects of the compounds were compared with each other, and with the parent nucleoside.
The data obtained in these experiments were evaluated using one way ANOVA. All data was confirmed as Gaussian or a Gaussian approximation using the omnibus K2 test. LD50 values were calculated from the non-linear regression and line of best-fit analysis of the sigmoidal dose-response curves. All statistical analyses were performed using Graphpad Prism 6.0 software (Graphpad Software Inc., San Diego, Calif.).

[5] = CRL, with AK (adenosine kinase inhibitor A-134974, 1 μM)
[6] = CRL, with EHNA 1 μM (adenosine deaminase blocker)
[7] = CRL, with NBTI 10 μM (nucleoside transporter blocker)

| SMILES | IC50 ([1]; 72 h, CRL (RL, CRL-2261)) [µM] | IC50 ([1]; CRL, Control (no inhibitor)) [µM] | (FD) fold difference compared to control ([1]; CRL, IC50 with AK inhibitor) | (FD) fold difference compared to control ([1]; CRL, IC50 with EHNA) | (FD) fold difference compared to control ([1]; CRL, IC50 with NBTI) | IC50 [1, 5] [µM] | IC50 [1, 6] [µM] | IC50 [1, 7] [µM] | IC50 ([2]; 72 h) [µM] | (FD) fold difference compared to Cordycepin = Cordycepin IC50/ProTide IC50 ([1]; CRL (RL, CRL-2261)) | in vitro drug sensitivity / potency (LD50 comparison, FIG. 1) [3] | reduction of LSCs as a proportion of the cancer cells in culture (ability to target LSCs) ([4]; Lin−/CD34+/CD38−/CD123+) | LSC targeting compared with the parent nucleoside ([4]; for compound A at 1 mM and above) | IC50 ([1]; 72 h, CRL (RL, CRL-2261), 72 hours, read-out: IC50) [µM] | IC50 ([1]; CRL, Control (no inhibitor), read-out: IC50) [µM] | IC50 ([1]; CRL, with AK (adenosine kinase inhibitor A-134974, 1 μM), read-out: IC50) [µM] | IC50 ([1]; CRL, with EHNA 1 μM (adenosine deaminase blocker), read-out: IC50) [µM] | IC50 ([1]; CRL, with NBTI 10 μM (nucleoside transporter blocker), read-out: IC50) [µM] | IC50 ([2]; 72 hr) [µM] |
| --- | --- | --- | --- | --- | --- | --- | --- | --- | --- | --- | --- | --- | --- | --- | --- | --- | --- | --- | --- |
| C[C@H](NP(=O)(OC[C@@H]1C[C@@H](O)[C@H](n2cnc3c(N)ncnc32)O1)Oc1cccc2ccccc12)C(=O)OCc1ccccc1 (stereo partly drawn) [B, (2S)-benzyl 2-(((((2S,4R,5R)-5-(6-amino-9H-purin-9-yl)-4-hydroxytetrahydrofuran-2-yl)methoxy)(naphthalen-1-yloxy)phosphoryl)amino)propanoate] | 0.4 | 3.1 | (1) | (2) | (1) | 2.8 | 5.2 | 2.6 | 0.1 to 5 |  |  |  |  |  |  |  |  |  |  |
| Nc1ncnc2c1ncn2[C@@H]1O[C@H](COP(=O)(NCC(=O)OCc2ccccc2)Oc2ccccc2)C[C@H]1O (stereo partly drawn) [C, Benzyl 2-(((((2S,4R,5R)-5-(6-amino-9H-purin-9-yl)-4-hydroxytetrahydrofuran-2-yl)methoxy)(phenoxy)phosphoryl)amino)acetate] |  |  |  |  |  |  |  |  | 5 to 15 |  |  |  |  |  |  |  |  |  |  |
| C[C@H](NP(=O)(OC[C@@H]1CC(O)[C@H](n2cnc3c(N)ncnc32)O1)Oc1ccccc1)C(=O)OCc1ccccc1 (stereo partly drawn) [Compound A, 3′-deoxyadenosine-5′-O-[phenyl(benzyloxy-L-alaninyl)] phosphate] | 2.1 | 3.6 | (3) | (1) | (1) | 10.2 | 2.9 | 2.6 | 0.1 to 5 | (12) | increased in vitro potency when compared to Cordycepin | preferentially target cancer stem cells | significantly greater than that of the parent compound |  |  |  |  |  |  |
| Nc1ncnc2c1ncn2[C@@H]1O[C@H](CO)C[C@H]1O [Cordycepin, 3′-deoxyadenosine, reference compound] |  |  |  |  |  |  |  |  |  |  |  |  |  | 24.5 | 7.3 | 28.6 | 13.2 | 17.9 | 15 to 100 |
| COC(=O)C(C)(C)NP(=O)(OC[C@@H]1C[C@@H](O)[C@H](n2cnc3c(N)ncnc32)O1)Oc1cccc2ccccc12 (stereo partly drawn) [E, Methyl 2-(((((2S,4R,5R)-5-(6-amino-9H-purin-9-yl)-4-hydroxytetrahydrofuran-2-yl)-methoxy)(naphthalen-1-yloxy)phosphoryl)amino)-2-methylpropanoate] | 11 | 8.2 | (1) | (1) | (1) | 7.1 | 5.9 | 8.2 | 15 to 100 | (2) |  |  |  |  |  |  |  |  |  |
| CCOC(=O)CCc1ccccc1OP(=O)(N[C@@H](C)C(=O)OCc1ccccc1)OC[C@@H]1C[C@@H](O)[C@H](n2cnc3c(N)ncnc32)O1 (stereo partly drawn) [F, (2S)-benzyl 2-(((((2S,4R,5R)-5-(6-amino-9H-purin-9-yl)-4-hydroxytetrahydrofuran-2-yl)methoxy)(2-(3-ethoxy-3-oxopropyl)phenoxy)phosphoryl)amino)propanoate] | 3.4 |  |  |  |  |  |  |  |  | (7) |  |  |  |  |  |  |  |  |  |
